Measured values published in ChEMBL document CHEMBL1150060, “Potent inhibitors of histamine release, two novel triterpenoids from the Okinawan marine sponge Penares incrustans” (J Nat Prod, 1992).

Columns and labels:
[1] = Cytotoxicity against rat peritoneal mast cells assessed as cell viability by trypan blue exclusion assay; assay type: cell-based; details: read-out: Activity
Mast cell = test: Inhibition of anti-IgE-induced histamine release in rat peritoneal mast cells; assay type: functional, cell-based

SMILES | viability [1] | Activity (Mast cell) | IC50 (Mast cell)
CC(=O)O[C@H]1CC[C@]2(C)C3=C(CC[C@H]2C1(C)C)[C@]1(C(=O)O)CC[C@H]([C@H](C)CCC=C(C)C)[C@@]1(C)CC3 [ACETYLPENASTEROL] | 97% | Dose-dependent effect | 10 µM
CC(C)=CCC[C@@H](C)[C@H]1CC[C@@]2(C(=O)O)C3=C(CC[C@]12C)[C@@]1(C)CCC(=O)C(C)(C)[C@@H]1CC3 [PENASTERONE] | 97% | Dose-dependent effect | 1.5 µM
